The record followed here is patent US10544144B2, “Fused pyrimidine piperidine cyclic derivative, preparation process and use thereof” (SHANGHAI ALLIST PHARMACEUTICAL AND MEDICAL TECHNOLOGY …, priority 2016, dated 2020).

By IC50 is commonly meant the concentration that gives 50% inhibition.

Assay [1] concerns Human Acute Myelogenous Leukemia Cell KG-1α (FGFR1 Insertion Mutation). Description: MTT proliferation inhibition, KG-1α cells. In kind it is cell-based. Particulars: 72 hours drug exposure. As to the method:
(§1) The pharmacodynamic action of the compound of the present invention in terms of inhibiting the proliferation of cancer cells may be determined by conventional methods. One preferable evaluation method is MTT (Thiazolyl Blue) cell activity assay, in which the change in optical absorption value generated after the drug has acted on the cancer cells is measured, and the inhibition ratio of a drug against the proliferation of cancer cells is calculated. Inhibition ratio (%)=[(blank control OD−inhibitor OD)/blank control OD]×100%
(§2) Blank control OD: the OD value of the well of normally grew cells without the action of a drug.
(§3) Inhibitor OD: the OD value of the well of cells with the action of the added compounds to be screened.
(§4) The median inhibitory concentration (IC50) value is obtained by the software GraphPad Prism 5.0 by the 4-parameter logistic curve fit calculation. Each experiment is repeated three times, and the average IC50 value for three experiments is used as the final index for the inhibitory ability.
(§5) Proliferation Inhibition Effect on Human Acute Myelogenous Leukemia Cell KG-1α (FGFR1 Insertion Mutation), Human Gastric Cancer Cell KATO-3 (FGFR2 Amplification), Human Multiple Myeloma Cell KMS-11 (FGFR3 Y373C Mutation)
(§6) Cells in the logarithmic phase were inoculated to 96-well culture plates (cell density: 3000/well for KATO-3, 9000/well for KG-1α, 3000/well for KMS-11, cell suspension: 180 μl/well), and cultured at 37° C. under 5% CO2 for 24 hours. After the culturing, the cells adhered to the well walls. Each of compounds was dissolved in DMSO in advance to formulate a 10 mM stock solution. Upon testing, the stock solution was diluted with complete medium to 10 times the target concentration in another 96-cell plate. And then the compound was added at 20 μl/cell in the 96-well plate in which the cells were inoculated, i.e. the target concentration could be reached. The well for each concentration was triplicated, and the blank control was established. Cells continued to be cultured at 37° C. under 5% CO2 for 72 hours. After the drug acted for 72 hours, 20 μl of Thiazolyl Blue, i.e., MTT was added to each of wells. MTT was dissolved in a phosphate buffer solution free of Ca and Mg ions (D-PBSA) to formulate a 0.5% stock solution in advance. The stock solution was filtered and sterilized. Cells continued to be cultured at 37° C. under 5% CO2 for 4 hours. After 4 hours from the addition of MTT, 100 μl of 14% dimethylformamide-sodium dodecyl sulfate (DMF-SDS) was added to and dissolved in each of wells. Cells were cultured at 37° C. for 3-4 hours, and detected for the light density value (OD) at a wavelength of 570 nm. The inhibition rate was calculated based on the collected data.

Assay [2] concerns Human Gastric Cancer Cell KATO-3 (FGFR2 Amplification). As to the kind of experiment: MTT proliferation inhibition, KATO-3 cells. In kind it is cell-based.
Source text: The pharmacodynamic action of the compound of the present invention in terms of inhibiting the proliferation of cancer cells may be determined by conventional methods. […] Inhibition ratio (%)=[(blank control OD−inhibitor OD)/blank control OD]×100%
as §2, §3, §4, §5, §6

The subject of assay [3] is subcutaneously transplanted tumors of human bladder cancer RT112/84. Description: Growth of subcutaneously transplanted tumors in RT112/84-bearing nude mice. In kind it is in vivo, BALB/c nude mice. Particulars: p.o., 14 days, I-5 15 or 25 mg/kg QD, I-13 50 mg/kg BID, BGJ398 15 mg/kg QD, FIG. 1. From the text: The pharmacodynamic action of the compound of the present invention in terms of inhibiting the growth of transplantation tumor in animal may be assayed by conventional methods. One preferable evaluation method involves the inhibitory effect on the growth of subcutaneously transplantation tumor of human bladder cancer RT112/84-bearing nude mice. The experimental method is as follows: 5×10^6 human bladder cancer RT112/84 cells are inoculated to nude mice subcutaneously at the right side of the back thereof, and each mouse is inoculated with 0.1 ml. After the tumors grow to 100-150 mm^3 on average, the animals are divided into groups randomly according to the tumor size and the animal weight. […] During the entire experimental process, the animal weight and the tumor size are measured twice per week, so as to observe whether or not the toxic reaction occurs.
The tumor volume is calculated as follows: Tumor volume (mm^3)=0.5×(Tumor major diameter×Tumor minor diameter^2) Body weight change rate (%)=measured body weight/body weight before administration×100%. […]
Cell cultivation: RT112/84 cells were placed in a MEM medium containing 10% fetal bovine serum (FBS) and 1% non-essential amino acid (NEAA), and cultivated in a temperature-constant incubator containing 5% CO2 at 37° C. The cells in exponential growth phase were collected and counted for inoculation. […]

In assay [4] the test system is Human Multiple Myeloma Cell KMS-11 (FGFR3 Y373C Mutation). Description: MTT proliferation inhibition, KMS-11 cells. In kind it is cell-based. Particulars: 72 hours drug exposure. As to the method:
as §1, §2, §3
The median inhibitory concentration (IC50) value is obtained by the software GraphPad Prism 5.0 by the 4-parameter logistic curve fit calculation. […]
Cells in the logarithmic phase were inoculated to 96-well culture plates (cell density: 3000/well for KATO-3, 9000/well for KG-1α, 3000/well for KMS-11, cell suspension: 180 μl/well), and cultured at 37° C. under 5% CO2 for 24 hours. […] Cells were cultured at 37° C. for 3-4 hours, and detected for the light density value (OD) at a wavelength of 570 nm. The inhibition rate was calculated based on the collected data.

Setting [5] is: KATO3, 72 h, read-out: KATo-3 (FGFR2 amplification) IC50 (nM).
The mark [6] stands for this setting: KATO3, MTT, 72 hours drug exposure, KATO-3 cells, read-out: KATo-3 (FGFR2 amplification) IC50.

Where two headings read alike, the source gives them in different places.

Take `COc1cc(OC)c(Cl)c(N2CCc3nc(Nc4ccc(N5CCC(N(C)C)CC5)cc4)ncc3C2)c1Cl` [Compound I-5, 6-(2,6-dichloro-3,5-dimethoxyphenyl)-N-(4-(4-(dimethylamino)piperidin-1-yl)phenyl)-5,6,7,8-tetrahydropyrido[4,3-d]pyrimidin-2-amine]: the half-inhibitory concentration (IC50) in assay [1] (Homo sapiens) came to 2 nM; in assay [2] (setting [5]) it was 4 nM. For the same molecule, in assay [3], the “inhibition effect on the growth of subcutaneously transplanted tumors (tumor volume)” value was “better inhibition effect than BGJ398”.
As for `COc1cc(OC)c(Cl)c(N2CCc3nc(Nc4ccc(N5CCN(CCN(C)C)CC5)cc4)ncc3C2)c1Cl` [Compound I-4, 6-(2,6-dichloro-3,5-dimethoxyphenyl)-N-(4-(4-(2-(dimethylamino)ethyl)piperazin-1-yl)phenyl)-5,6,7,8-tetrahydropyrido[4,3-d]pyrimidin-2-amine], the IC50 in assay [1] (Homo sapiens) was 2 nM; in assay [2] (setting [5]), 30 nM.
On to `CCN1CCN(c2ccc(Nc3ncc4c(n3)CCN(c3c(Cl)c(OC)cc(OC)c3Cl)C4)cn2)CC1` [Compound I-8, 6-(2,6-dichloro-3,5-dimethoxyphenyl)-N-(6-(4-ethylpiperazin-1-yl)pyridin-3-yl)-5,6,7,8-tetrahydropyrido[4,3-d]pyrimidin-2-amine], for which the IC50 is 5 nM in assay [1] (Homo sapiens) and 4 nM in assay [2] (setting [6]).
On to AZD4547 [reference compound], for which the half-inhibitory concentration (IC50) turned out to be 7 nM in assay [1] and 200 nM in assay [4].
Turning to `COc1cc(OC)c(Cl)c(N2CCc3nc(Nc4ccc(N5CCN(C6CC6)CC5)cc4)ncc3C2)c1Cl` [Compound I-6, 6-(2,6-dichloro-3,5-dimethoxyphenyl)-N-(4-(4-cyclopropylpiperazin-1-yl)phenyl)-5,6,7,8-tetrahydropyrido[4,3-d]pyrimidin-2-amine], the IC50 in assay [1] (Homo sapiens) is 3 nM; in assay [2] (setting [5]), 11 nM.
On to `CCN1CCN(c2ccc(Nc3ncc4c(n3)CCN(c3cc(C(=O)NC)cc(OC)c3Cl)C4)cn2)CC1` [Compound I-11, 4-chloro-3-(2-(6-(4-ethylpiperazin-1-yl)pyridin-3-ylamino)-7,8dihydropyrido[4,3-d]pyrimidin-6(5H)-yl)-5-methoxy-N-methylbenzamide], for which the IC50 in assay [1] (Homo sapiens) is 8 nM; in assay [2] (setting [6]) it was 4 nM.
Regarding `COc1cc(OC)c(Cl)c(N2CCc3nc(Nc4ccc(N5CCN(CC(F)(F)F)CC5)cc4)ncc3C2)c1Cl` [Compound I-2, 6-(2,6-dichloro-3,5-dimethoxyphenyl)-N-(4-(4-(2,2,2-trifluoroethyl)piperazin-1-yl)phenyl)-5,6,7,8-tetrahydropyrido[4,3-d]pyrimidin-2-amine], the results for the IC50 in assay [1] (Homo sapiens) and in assay [2] (setting [5]) were 7 nM and 45 nM, respectively.
As for `COc1cc(OC)c(Cl)c(N2CCc3nc(Nc4ccc(N5CCC(N(C)C)CC5)cc4)ncc3C2)c1F` [Compound I-15, 6-(2-fluoro-6-chloro-3,5-dimethoxyphenyl)-N-(4-(4-(dimethylamino)piperidin-1-yl)phenyl)-5,6,7,8-tetrahydropyrido[4,3-d]pyrimidin-2-amine], the half-inhibitory concentration (IC50) in assay [1] (Homo sapiens) is 2 nM; in assay [2] (setting [6]) it was 3 nM.
For the molecule `CCN1CCN(c2ccc(Nc3ncc4c(n3)CCN(c3c(Cl)c(OC)cc(OC)c3Cl)C4)cc2OC)CC1` [Compound I-10, 6-(2,6-dichloro-3,5-dimethoxyphenyl)-N-(4-(4-ethylpiperazin-1-yl)-3-methoxyphenyl)-5,6,7,8-tetrahydropyrido[4,3-d]pyrimidin-2-amine], the IC50 in assay [1] (Homo sapiens) stood at 24 nM; in assay [2] (setting [6]), 7 nM.
Turning to `COc1cc(OC)c(Cl)c(N2CCc3nc(Nc4ccc(N5CCN(CCO)CC5)nc4)ncc3C2)c1Cl` [Compound I-14, 2-(4-(5-(6-(2,6-dichloro-3,5-dimethoxyphenyl)-5,6,7,8-tetrahydropyrido[4,3-d]pyrimidin-2-ylamino)pyridin-2-yl)piperazin-1-yl)ethanol], the figures for the half-maximal inhibitory concentration (IC50) in assay [1] (Homo sapiens) and in assay [2] (setting [6]) were 15 nM and 23 nM, respectively.
As for `COc1cc(OC)c(Cl)c(N2CCc3nc(Nc4ccc(N5CCC(N(C)C)CC5)nc4)ncc3C2)c1Cl` [Compound I-9, 6-(2,6-dichloro-3,5-dimethoxyphenyl)-N-(6-(4-(dimethylamino)piperidin-1-yl)pyridin-3-yl)-5,6,7,8-tetrahydropyrido[4,3-d]pyrimidin-2-amine], the IC50 came to 12 nM in assay [1] (Homo sapiens), 21 nM in assay [2] (setting [6]) and 200 nM in assay [4] (Homo sapiens).
`CCN1CCN(c2ccc(Nc3ncc4c(n3)CCN(c3c(Cl)c(OC)cc(OC)c3Cl)C4)cc2)C(=O)C1` [Compound I-7]: the IC50 in assay [1] (Homo sapiens) is 18 nM; in assay [2] (setting [6]) it was 6 nM.
Take `COc1cc(OC)c(Cl)c(N2CCc3nc(Nc4ccc(N5CCN(CCO)CC5)cc4)ncc3C2)c1Cl` [Compound I-3, 2-(4-(4-(6-(2,6-dichloro-3,5-dimethoxyphenyl)-5,6,7,8-tetrahydropyrido[4,3-d]pyrimidin-2-ylamino)phenyl)piperazin-1-yl)ethanol]: the figures for the IC50 in assay [1] (Homo sapiens) and in assay [2] (setting [5]) were 1 nM and 8 nM, respectively.
Turning to `CNC(=O)c1cc(OC)c(Cl)c(N2CCc3nc(Nc4ccc(N5CCC(N(C)C)CC5)cc4)ncc3C2)c1` [Compound I-13], the IC50 worked out at 6 nM in assay [1] (Homo sapiens) and 3 nM in assay [2] (setting [6]).
As to `CCN1CCN(c2ccc(Nc3ncc4c(n3)CCN(c3c(Cl)c(OC)cc(OC)c3Cl)C4)cc2)CC1` [Compound I-1, 6-(2,6-dichloro-3,5-dimethoxyphenyl)-N-(4-(4-ethylpiperazin-1-yl)phenyl)-5,6,7,8-tetrahydropyrido[4,3-d]pyrimidin-2-amine], the IC50 in assay [1] (Homo sapiens) was 5 nM; in assay [2] (setting [6]), 12 nM.
